Results from ChEMBL document CHEMBL1201862, “PubChem BioAssay data set” (2004).
Active and inactive are the calls of the source.

Columns and labels:
[1] = biological target: T1, Leucine aminopeptidase (Plasmodium falciparum 3D7, UniProt Q8IL11); experiment: P. falciparum M17LAP inhibitors, primary screen, biochemical, fluorogenic H-Leu-NHMec substrate, 1536-well (AID 1619); format: functional
T1 sequence (Q8IL11 whole entry): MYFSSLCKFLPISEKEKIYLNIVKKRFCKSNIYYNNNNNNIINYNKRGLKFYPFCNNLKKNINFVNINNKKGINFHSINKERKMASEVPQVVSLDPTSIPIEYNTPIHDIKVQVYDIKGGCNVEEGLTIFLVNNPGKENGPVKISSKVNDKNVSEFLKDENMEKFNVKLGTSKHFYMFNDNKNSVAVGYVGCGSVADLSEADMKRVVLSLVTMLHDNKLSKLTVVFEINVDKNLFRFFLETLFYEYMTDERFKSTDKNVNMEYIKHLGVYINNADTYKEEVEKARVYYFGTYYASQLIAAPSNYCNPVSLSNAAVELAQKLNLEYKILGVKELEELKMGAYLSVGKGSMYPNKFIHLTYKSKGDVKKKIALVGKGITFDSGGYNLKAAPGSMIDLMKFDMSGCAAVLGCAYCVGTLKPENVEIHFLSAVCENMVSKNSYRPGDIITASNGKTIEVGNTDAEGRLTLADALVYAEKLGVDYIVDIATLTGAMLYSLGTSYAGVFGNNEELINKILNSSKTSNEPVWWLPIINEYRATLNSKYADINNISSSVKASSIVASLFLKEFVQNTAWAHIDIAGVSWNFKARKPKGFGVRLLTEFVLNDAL

[2] = biological target: T2, Cytochrome P450 1A2 (Homo sapiens, UniProt P05177);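 note: PubChem cytochrome P450 panel assay, CYP1A2 panel member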
T2 sequence (P05177 whole entry): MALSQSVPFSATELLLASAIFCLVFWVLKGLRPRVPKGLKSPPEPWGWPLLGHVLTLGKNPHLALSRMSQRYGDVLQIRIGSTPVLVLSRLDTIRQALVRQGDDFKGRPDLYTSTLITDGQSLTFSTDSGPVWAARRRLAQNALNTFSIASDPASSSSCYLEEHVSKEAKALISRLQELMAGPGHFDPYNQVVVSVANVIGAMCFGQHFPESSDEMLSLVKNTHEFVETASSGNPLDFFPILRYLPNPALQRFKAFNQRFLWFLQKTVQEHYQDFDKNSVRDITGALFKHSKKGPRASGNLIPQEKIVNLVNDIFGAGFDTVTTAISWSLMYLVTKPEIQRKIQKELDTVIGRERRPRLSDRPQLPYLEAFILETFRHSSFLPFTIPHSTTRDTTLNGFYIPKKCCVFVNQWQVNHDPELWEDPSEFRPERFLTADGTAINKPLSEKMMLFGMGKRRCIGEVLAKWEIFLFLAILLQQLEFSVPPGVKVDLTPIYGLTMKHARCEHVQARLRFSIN

[3] = biological target: Cytochrome P450 3A4 (Homo sapiens, UniProt P08684);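 note: CYP3A4 tested as one member of a cytochrome P450 panel screen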
Sequence of Cytochrome P450 3A4 (P08684 whole entry): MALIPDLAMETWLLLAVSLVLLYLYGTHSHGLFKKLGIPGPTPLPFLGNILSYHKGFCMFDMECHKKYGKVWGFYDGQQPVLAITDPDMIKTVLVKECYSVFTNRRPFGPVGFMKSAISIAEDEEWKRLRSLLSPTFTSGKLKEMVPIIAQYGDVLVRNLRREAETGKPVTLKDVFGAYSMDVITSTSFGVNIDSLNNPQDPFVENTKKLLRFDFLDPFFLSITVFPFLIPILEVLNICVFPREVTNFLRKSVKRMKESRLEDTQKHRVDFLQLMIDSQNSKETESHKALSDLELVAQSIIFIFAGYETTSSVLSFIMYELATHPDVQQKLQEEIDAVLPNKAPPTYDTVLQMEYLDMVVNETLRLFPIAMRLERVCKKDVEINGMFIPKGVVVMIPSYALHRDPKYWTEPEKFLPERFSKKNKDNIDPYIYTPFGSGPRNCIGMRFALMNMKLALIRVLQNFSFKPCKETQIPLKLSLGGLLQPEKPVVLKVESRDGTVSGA

[4] = biological target: Cytochrome P450 2C9 (Homo sapiens, UniProt P11712)
Sequence of Cytochrome P450 2C9 (P11712 whole entry): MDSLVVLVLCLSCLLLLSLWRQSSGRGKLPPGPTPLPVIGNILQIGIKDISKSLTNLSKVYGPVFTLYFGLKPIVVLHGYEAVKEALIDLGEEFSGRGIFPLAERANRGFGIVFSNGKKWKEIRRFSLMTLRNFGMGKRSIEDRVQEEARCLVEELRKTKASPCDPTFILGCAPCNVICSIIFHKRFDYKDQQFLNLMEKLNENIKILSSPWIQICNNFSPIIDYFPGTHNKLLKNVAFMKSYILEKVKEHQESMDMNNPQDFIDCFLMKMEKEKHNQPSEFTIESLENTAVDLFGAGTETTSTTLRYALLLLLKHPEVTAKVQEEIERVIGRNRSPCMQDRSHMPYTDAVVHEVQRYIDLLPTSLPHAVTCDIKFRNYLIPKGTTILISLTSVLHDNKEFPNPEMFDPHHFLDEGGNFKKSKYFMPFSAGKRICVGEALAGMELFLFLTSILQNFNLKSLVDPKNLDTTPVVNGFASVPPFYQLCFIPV

[5] = biological target: T3, Estrogen receptor (Homo sapiens, UniProt P03372);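 note: potency for inhibiting coactivator peptide recruitment to the receptor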
T3 sequence (P03372 whole entry): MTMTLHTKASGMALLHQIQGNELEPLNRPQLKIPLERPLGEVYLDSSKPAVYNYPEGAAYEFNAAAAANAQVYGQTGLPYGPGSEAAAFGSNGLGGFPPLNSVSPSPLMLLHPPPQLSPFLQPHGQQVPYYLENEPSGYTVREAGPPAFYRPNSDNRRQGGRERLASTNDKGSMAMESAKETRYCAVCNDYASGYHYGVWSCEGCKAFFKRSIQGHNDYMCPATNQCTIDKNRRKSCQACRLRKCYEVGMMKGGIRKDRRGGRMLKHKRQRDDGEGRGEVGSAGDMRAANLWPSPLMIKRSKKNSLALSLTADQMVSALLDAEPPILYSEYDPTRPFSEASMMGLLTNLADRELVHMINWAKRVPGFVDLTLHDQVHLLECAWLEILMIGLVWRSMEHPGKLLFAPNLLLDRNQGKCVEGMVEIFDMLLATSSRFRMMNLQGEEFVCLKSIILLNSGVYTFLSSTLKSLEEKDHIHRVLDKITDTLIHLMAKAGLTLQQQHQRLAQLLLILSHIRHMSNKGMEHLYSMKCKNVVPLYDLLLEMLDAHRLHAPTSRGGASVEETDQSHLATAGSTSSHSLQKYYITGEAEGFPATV

[6] = test system: HEK293; experiment: inhibitors of LMP1-driven NF-kB reporter, dose response, cell-based, HEK293, luciferase, cherry-pick (AID 588343); format: functional; settings: Homo sapiens
[7] = biological target: Eukaryotic translation initiation factor 4E (Mus musculus, UniProt P63073); experiment: eIF4E–eIF4G protein interaction inhibitors, dose response, biochemical, TR-FRET (AID 855); format: functional;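 note: potency for disrupting eIF4E binding to eIF4GI seen as loss of FRET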
Sequence of Eukaryotic translation initiation factor 4E (P63073 whole entry): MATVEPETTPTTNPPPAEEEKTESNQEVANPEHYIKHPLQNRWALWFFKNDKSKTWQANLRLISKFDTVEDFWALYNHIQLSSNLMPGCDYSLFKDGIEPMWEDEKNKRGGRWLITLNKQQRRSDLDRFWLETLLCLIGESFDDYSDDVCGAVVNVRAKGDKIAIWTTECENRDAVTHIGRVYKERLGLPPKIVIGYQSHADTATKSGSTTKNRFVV

[8] = inhibitors of Vif binding to APOBEC3G peptide, primary screen, biochemical, TR-FRET, GST-Vif 1-94, biotin-A3G peptide, dose response retest (AID 1117319); format: functional;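 note: TR-FRET signal of purified GST-Vif binding a biotinylated A3G peptide; inhibitors lower the FRET signal by blocking Vif and A3G binding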
[9] = P. falciparum late gametocyte killing, dose response, luminescence (AID 1117278); format: functional, cell-based;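 note: gametocytes exposed to compound for 24 hours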
[10] = Jurkat T cell cytotoxicity, dose response, cytotoxicity control for P. falciparum gametocyte viability project, luminescence (AID 1117277); format: functional, cell-based;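 note: potency reflects loss of cellular ATP meaning fewer viable cells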
[11] = test system: HeLa; experiment: HeLa cell cytotoxicity, dose response, cytotoxicity control, 24 h, cherry-picked samples (AID 504726); format: functional, cell-based; settings: Homo sapiens;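 note: potency for cytotoxicity as loss of luminescence signal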
[12] = biological target: DNA damage-inducible transcript 3 protein (Mus musculus, UniProt P35639); format: functional, Cricetulus griseus
Sequence of DNA damage-inducible transcript 3 protein (P35639 whole entry): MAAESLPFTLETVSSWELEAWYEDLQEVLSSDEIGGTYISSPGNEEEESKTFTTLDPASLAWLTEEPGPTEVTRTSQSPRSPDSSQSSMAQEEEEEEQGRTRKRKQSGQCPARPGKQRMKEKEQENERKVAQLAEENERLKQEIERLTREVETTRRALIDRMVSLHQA

[13] = biological target: T4, X-box-binding protein 1 (Homo sapiens, UniProt P17861); format: functional, Cricetulus griseus;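 note: confirmatory dose-response counter-screen serving a CHOP assay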
T4 sequence (P17861 whole entry): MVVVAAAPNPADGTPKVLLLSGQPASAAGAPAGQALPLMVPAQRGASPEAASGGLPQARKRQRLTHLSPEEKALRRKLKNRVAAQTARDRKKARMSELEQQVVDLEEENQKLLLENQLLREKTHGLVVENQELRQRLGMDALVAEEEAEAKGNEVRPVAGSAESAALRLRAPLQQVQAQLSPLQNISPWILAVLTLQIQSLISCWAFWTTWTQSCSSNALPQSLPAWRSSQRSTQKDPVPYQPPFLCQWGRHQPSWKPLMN

[14] = biological target: T5, Heat shock factor protein 1 (Mus musculus, UniProt P38532); experiment: inhibition of MG132-induced HSE-luciferase signal, confirmation, cell-based, NIH3T3, luminescence, dose retest (AID 2382); format: functional;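 note: NIH3T3 fibroblasts with HSF1-driven luciferase reporter stressed by proteasome inhibitor MG132; luminescence from HSF1-driven luciferase expression after 8 hours of MG132 stress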
T5 sequence (P38532 whole entry): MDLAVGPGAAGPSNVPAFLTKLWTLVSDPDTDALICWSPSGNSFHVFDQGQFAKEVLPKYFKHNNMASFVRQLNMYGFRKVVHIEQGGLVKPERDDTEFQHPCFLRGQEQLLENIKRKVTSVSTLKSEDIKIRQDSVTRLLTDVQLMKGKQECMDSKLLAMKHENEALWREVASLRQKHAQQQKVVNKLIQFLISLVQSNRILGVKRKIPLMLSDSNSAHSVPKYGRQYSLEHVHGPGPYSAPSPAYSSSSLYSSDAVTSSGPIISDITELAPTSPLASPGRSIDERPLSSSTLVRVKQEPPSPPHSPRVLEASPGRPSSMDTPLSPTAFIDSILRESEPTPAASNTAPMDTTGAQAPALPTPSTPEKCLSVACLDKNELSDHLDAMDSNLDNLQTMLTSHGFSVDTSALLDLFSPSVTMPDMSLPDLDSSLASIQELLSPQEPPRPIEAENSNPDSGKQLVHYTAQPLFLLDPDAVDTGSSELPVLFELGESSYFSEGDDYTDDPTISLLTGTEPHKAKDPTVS

[15] = biological target: T6, Protein Tat (Human immunodeficiency virus type 1 group M subtype B (isolate HXB2)(HIV-1), UniProt P04608); format: functional;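 note: tat binding to TAR RNA read out by fluorescence polarization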
T6 sequence (P04608 whole entry): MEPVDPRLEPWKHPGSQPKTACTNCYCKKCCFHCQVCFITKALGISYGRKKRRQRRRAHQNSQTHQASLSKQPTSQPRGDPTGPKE

[16] = biological target: Endoplasmic reticulum aminopeptidase 1 (Homo sapiens, UniProt Q9NZ08); experiment: ERAP1 aminopeptidase inhibitors, dose response, biochemical, cherry-pick, set 2, plate reader (AID 743314)
Sequence of Endoplasmic reticulum aminopeptidase 1 (Q9NZ08 whole entry): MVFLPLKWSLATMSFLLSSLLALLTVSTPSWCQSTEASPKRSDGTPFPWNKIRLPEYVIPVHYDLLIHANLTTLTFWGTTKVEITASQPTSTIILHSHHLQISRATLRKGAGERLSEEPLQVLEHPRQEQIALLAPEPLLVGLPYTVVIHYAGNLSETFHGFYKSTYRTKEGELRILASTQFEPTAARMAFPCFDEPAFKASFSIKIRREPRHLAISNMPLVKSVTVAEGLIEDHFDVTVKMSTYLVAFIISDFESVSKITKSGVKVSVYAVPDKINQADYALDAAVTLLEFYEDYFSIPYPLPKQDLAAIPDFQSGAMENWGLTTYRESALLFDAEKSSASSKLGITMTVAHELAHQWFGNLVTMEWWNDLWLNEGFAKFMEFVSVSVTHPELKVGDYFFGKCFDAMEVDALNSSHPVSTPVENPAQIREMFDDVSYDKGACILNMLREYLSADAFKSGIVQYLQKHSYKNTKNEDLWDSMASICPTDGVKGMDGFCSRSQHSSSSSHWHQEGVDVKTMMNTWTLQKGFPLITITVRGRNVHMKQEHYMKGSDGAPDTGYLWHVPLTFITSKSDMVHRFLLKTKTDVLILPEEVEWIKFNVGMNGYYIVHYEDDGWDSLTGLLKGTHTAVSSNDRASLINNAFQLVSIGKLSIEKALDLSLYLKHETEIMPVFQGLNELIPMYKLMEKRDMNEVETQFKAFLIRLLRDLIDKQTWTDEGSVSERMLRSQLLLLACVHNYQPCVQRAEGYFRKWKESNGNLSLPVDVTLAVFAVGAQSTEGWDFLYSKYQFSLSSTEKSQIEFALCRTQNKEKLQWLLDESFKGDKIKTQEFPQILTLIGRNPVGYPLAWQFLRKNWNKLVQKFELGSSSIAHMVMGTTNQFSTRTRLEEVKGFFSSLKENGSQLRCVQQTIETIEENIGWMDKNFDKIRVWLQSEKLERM

[17] = THP-1 cell cytotoxicity, dose response, cytotoxicity control for Vif-APOBEC3G degradation inhibitor project, THP-1 cells (AID 1117359); format: functional; settings: Human immunodeficiency virus 1, THP-1
[18] = THP-1 cell cytotoxicity, dose response, cytotoxicity control for non-replicating M. tuberculosis project (AID 489025); format: functional
[19] = HepG2 cell cytotoxicity, dose response, cytotoxicity control for non-replicating M. tuberculosis project (AID 489018); format: functional; settings: Mycobacterium tuberculosis
[20] = Vero E6 cell cytotoxicity, dose response, cytotoxicity control for non-replicating M. tuberculosis project, secondary assay (AID 492998); format: functional, VeroE6; settings: Vero C1008
[21] = cells; format: functional
[22] = biological target: Induced myeloid leukemia cell differentiation protein Mcl-1 (Homo sapiens, UniProt Q07820); format: functional
Sequence of Induced myeloid leukemia cell differentiation protein Mcl-1 (Q07820 whole entry): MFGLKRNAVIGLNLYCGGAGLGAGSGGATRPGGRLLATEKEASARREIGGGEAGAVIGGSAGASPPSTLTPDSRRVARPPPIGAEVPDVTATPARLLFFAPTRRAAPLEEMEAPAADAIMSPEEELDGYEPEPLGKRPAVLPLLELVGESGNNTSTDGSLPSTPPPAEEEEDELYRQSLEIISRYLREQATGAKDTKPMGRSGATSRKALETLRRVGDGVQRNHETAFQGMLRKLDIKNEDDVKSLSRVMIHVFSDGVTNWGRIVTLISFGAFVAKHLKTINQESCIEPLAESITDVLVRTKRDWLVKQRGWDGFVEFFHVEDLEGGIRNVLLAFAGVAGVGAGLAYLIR

[23] = HEp-2 cell cytotoxicity, dose response, cytotoxicity control for RSV inhibitor project, HTS (AID 2410); format: functional; settings: human respiratory syncytial virus

In the case of `O=C(O)c1ccccc1-c1ccccc1C(=O)Nc1ccc2c(c1)[nH]c(=O)c1ccccc12`, the IC50 [1] is reported as 38.8 µM (active), the AC50 [2] is reported as 0.00316 µM (inconclusive) and the AC50 [3] is reported as 3.98 µM (inconclusive). The AC50 [4] was 3.16 µM (inconclusive).

In the case of `O=C(Nc1ccc2c(c1)nc1n2CCSC1)c1ccco1`, the IC50 [5] is reported as 14.5 µM (active) and the AC50 [6] is reported as 3.52 µM (active).

For `CCOc1cc(C2c3c(C)n[nH]c3C(=O)N2c2ccc(C)cc2)ccc1O` (stereo unspecified), the IC50 [7] was > 64 µM (inactive).

For `CC1CCN(C(=S)c2ccccc2O)CC1`, the IC50 [7] was > 64 µM (inactive).

For `COc1ccc(N(CC(=O)NCc2ccccc2C)S(=O)(=O)c2ccc(C)cc2)cc1OC`, the IC50 [8] was > 100 µM (active).

In the case of `COCCn1cnc2c1c(=O)n(CC(=O)Nc1cc(C)on1)c(=O)n2Cc1ccccc1`, the IC50 [9] is reported as > 109 µM (inactive) and the IC50 [10] is reported as > 83.3 µM (inactive).

For `Cc1ccc(OCC(=O)O/N=C(\N)Cc2ccc([N+](=O)[O-])cc2)cc1C`, the AC50 [11] was > 350 µM (inactive).

In the case of `Cc1cc(NC(=O)CSc2nc3cc4c(cc3c(=O)n2CCc2ccccc2)OCO4)no1`, the “Absolute IC50 (CHOP)” value [12] is reported as 10 µM and the “Absolute IC50 (XBP1)” value [13] is reported as 10 µM.

With `CCCn1nc(C(=O)OCC(=O)c2ccc3c(c2)NC(=O)CO3)c2ccccc2c1=O` the IC50 [5] was 37.9 µM (not active).

With `O=C(COC(=O)Cc1c(Cl)cccc1Cl)Nc1ccc(OC(F)(F)F)cc1` the EC50 [14] was > 195 µM (not active) and the “Absolute IC50 (XBP1)” value [13] was 10 µM.

In the case of `COCCCNC(=O)c1cccn2c(=O)c3cc4ccccc4cc3nc12`, the IC50 [15] is reported as > 100 µM (active).

With `CCCc1cc(=O)oc2c(CN3CCN(C)CC3)c(O)ccc12` the AC50 [16] was 7.87 µM (active).

In the case of `COc1ccc(CN2C(=O)c3ccccc3C2C(=O)NCc2cccnc2)c(OC)c1` (stereo unspecified), the IC50 [8] is reported as > 100 µM (active).

With `S=C(Nc1ccc2c(c1)OCCO2)Nc1ccc2c(c1)OCO2` the IC50 [15] was > 100 µM (active), the CC50 [17] was > 40 µM (active) and the IC50 [8] was > 100 µM (active).

For `O=C(Nc1nnc(C2CC2)o1)c1ccc(S(=O)(=O)N2CCCCC2)cc1`, the CC50 [18] was > 40 µM (active), the CC50 [19] was > 20 µM (active) and the CC50 [20] was 11.5 µM (active). For the same compound, the IC50 [21] was 10.3 µM (active).

In the case of `CC(C)=CCc1c(O)c(CC=C(C)C)c2c(c1O)C(=O)CC(c1ccc(O)cc1)O2` (stereo unspecified), the “Absolute IC50 (XBP1)” value [13] is reported as 10 µM.

For `Cc1ccc(OCc2ccc(C(=O)O)o2)c([N+](=O)[O-])c1`, the IC50 [1] was 31.8 µM (active).

For `Cc1cc(=O)oc2cc(NS(=O)(=O)c3ccc(F)cc3)ccc12`, the AC50 [16] was 8.8 µM (active).

With `CCCn1c(O)nnc1SCC(=O)c1cc(C)ccc1C` the IC50 [8] was > 100 µM (active).

With `Cc1c(N)cc(S(=O)(=O)O)cc1NC(=O)c1cccc([N+](=O)[O-])c1` the AC50 [11] was 56.4 µM (active).

With `COc1cccc(OCCNc2ccc([N+](=O)[O-])cn2)c1` the AC50 [11] was 49.3 µM (active).

In the case of `Cc1cc(S(=O)(=O)NC2CCN(Cc3ccccc3)CC2)c(C)cc1Cl`, the AC50 [11] is reported as 52.3 µM (active).

For `CCOc1ccc(S(=O)(=O)N2CCCC2)cc1`, the IC50 [9] was > 109 µM (inactive) and the IC50 [10] was > 83.3 µM (inactive).

For `Cc1ccc(S(=O)(=O)N2CCN(C(=O)CCC(=O)NCCc3ccc(F)cc3)CC2)cc1`, the IC50 [9] was > 109 µM (inactive) and the IC50 [10] was > 83.3 µM (inactive).

In the case of `Cc1ccc(/C=c2\sc3nc(-c4ccco4)nn3c2=O)o1`, the IC50 [5] is reported as 13.9 µM (active) and the IC50 [22] is reported as 4.61 µM (active).

In the case of `Cc1ccc(NCC(=O)N/N=C/c2cccc(Oc3ccccc3)c2)cc1`, the “Absolute IC50 (CHOP)” value [12] is reported as 10 µM and the “Absolute IC50 (XBP1)” value [13] is reported as under 10 µM.

In the case of `CC(C)CCNCC(O)CON=C1c2ccccc2-c2ccccc21` (stereo unspecified), the CC50 [23] is reported as 12.6 µM (active), the CC50 [18] is reported as 13.8 µM (active) and the CC50 [19] is reported as 14.4 µM (active). The IC50 [21] was 16.8 µM (active).
